# Source: US20230146455A1, “TREATMENT OF INFLAMMATORY DISEASES WITH PEPTIDES AND PHARMACEUTICAL COMPOSITIONS” (Yuyu Pharma, Inc., priority 2020, published 2023)
# “Also recorded” adds a separate entry of the source. Where a SMILES comes first, the peptide text is derived from it. [ ]: non-standard residue; d: D form. Hyp = O=C(O)[C@@H]1C[C@@H](O)CN1
# System: cytokine and chemokine release in human peripheral blood mononuclear cells (hPBMCs)
# Test: Luminex multiplex, 30 cytokines and chemokines, LPS stimulated hPBMCs, main study (Example 8, Study 1), whole panel
# Assay type: cell-based
# Settings: for LPS-induced cytokine/chemokine levels, whole panel (in words): LPS 5 ug/mL 24 hrs, up to 500 nM
# Protocol: Human PBMCs frozen in a cryopreserve was thawed, washed with Hank's Balanced Salt Solution containing 10% Fetal bovine serum, and seeded onto a 24-well plate at a density of 1×10^6 cells/well with culture RPMI media containing 10% Fetal bovine serum in growth media in a 24 well plate for 12, 24, and 48 hrs and maintained at 37° C. in an atmosphere of 95% air and 5% CO2.
# Human PBMCs were pretreated with YY-101, YDE-011, YDE-043 or reference compound; Xiidra® at various concentration (ranging from […] to 500 nM) for 2 h before stimulation. An equal volume of 0.5% DMSO was used as a vehicle control. Then, the cells were treated with LPS at 5 ug/ml, which was selected based on the pilot study. The supernatants from treated cells were harvested at 24 h and placed in a 96 well for Luminex cytokine & chemokine profiling using a Luminex 200 multiplex assay (Luminex; R&D system, USA).
# The main study arm with triplicate wells per group in a 24-well plate: • 1. Blank • 2. PBMC: 0.5% DMSO • 3. PBMC+LPS (5 ug/ml) • 4. PBMC+YY-101 500 nM • 5. PBMC+YY-101 50 nM • 6. PBMC+YY-101 5 nM • 7. PBMC+YY-101 0.5 nM • 8. PBMC+LPS (5 ug/ml)+Xiidra® 500 nM • 9. PBMC+LPS (5 ug/ml)+Xiidra® 50 nM • 10. PBMC+LPS (5 ug/ml)+Xiidra® 5 nM • 11. PBMC+LPS (5 ug/ml)+Xiidra® 0.5 nM • 12. PBMC+LPS (5 ug/ml)+Xiidra® 0.05 nM • 13. PBMC+LPS (5 ug/ml)+Xiidra® 0.005 nM • 14. PBMC+LPS (5 ug/ml)+YY-101 500 nM • 15. PBMC+LPS (5 ug/ml)+YY-101 50 nM • 16. PBMC+LPS (5 ug/ml)+YY-101 5 nM • 17. PBMC+LPS (5 ug/ml)+YY-101 0.5 nM • 18. PBMC+LPS (5 ug/ml)+YY-101 0.05 nM • 19. PBMC+LPS (5 ug/ml)+YY-101 0.005 nM • 20. PBMC+LPS (5 ug/ml)+YDE-011 500 nM • 21. PBMC+LPS (5 ug/ml)+YDE-011 50 nM • 22. PBMC+LPS (5 ug/ml)+YDE-011 5 nM • 23. PBMC+LPS (5 ug/ml)+YDE-011 0.5 nM • 24. PBMC+LPS (5 ug/ml)+YDE-011 0.05 nM • 25. PBMC+LPS (5 ug/ml)+YDE-011 0.005 nM • 26. PBMC+LPS (5 ug/ml)+YDE-043 500 nM • 27. PBMC+LPS (5 ug/ml)+YDE-043 50 nM • 28. PBMC+LPS (5 ug/ml)+YDE-043 5 nM • 29. PBMC+LPS (5 ug/ml)+YDE-043 0.5 nM • 30. PBMC+LPS (5 ug/ml)+YDE-043 0.05 nM • 31. PBMC+LPS (5 ug/ml)+YDE-043 0.005 nM
# Multiplex assay was used to measure 30 cytokines and chemokines. The 1:200 diluted cell supernatant and serial dilution of the standard were dispensed into a 96 well plate at 50 ul/well. Then, the pre-mixed cocktail of antibody-coated magnetic beads was dispensed at 50 ul/well and incubated at room temperature for 2 h in a horizontal orbital microplate shaker at 800±500 rpm. The beads were washed using a magnetic device to prevent loss. The biotin-antibody was dispensed in 50 ul of each well and incubated at room temperature for 1 h in a shaker at 800±500 rpm. […] The data was calculated with a standard five-parameter logistic nonlinear regression analysis of the data (xPonent software 4.2, USA). […]
Structure (SMILES),"LPS-induced cytokine/chemokine levels, whole panel (in words)",basal levels of cytokine production (in words) (no LPS)
CC(C)C[C@H](NC(=O)CNC(=O)[C@H](CC(=O)O)NC(=O)[C@H](CCC(N)=O)NC(=O)CNC(=O)[C@@H]1C[C@@H](O)CN1)C(=O)N[C@@H](C)C(=O)NCC(=O)N1CCC[C@H]1C(=O)N[C@@H](CCCCN)C(=O)O [YY-101] (H-[Hyp]GQDGLAGPK-OH; N-terminus and C-terminus assumed),potently and significantly reduced pro-inflammatory cytokine/chemokine production,didn't affect the basal levels of cytokine production
CC(C)C[C@H](NC(=O)CNC(=O)[C@H](CC(C)C)NC(=O)[C@H](CCC(N)=O)NC(=O)CNC(=O)[C@@H]1C[C@@H](O)CN1)C(=O)N[C@@H](C)C(=O)NCC(=O)N1CCC[C@H]1C(=O)N[C@@H](CCCCN)C(=O)O [YDE-011] (H-[Hyp]GQLGLAGPK-OH),potently and significantly reduced pro-inflammatory cytokine/chemokine production,–
CC(C)C[C@H](NC(=O)[C@H](CCC(N)=O)NC(=O)CNC(=O)[C@@H]1C[C@@H](O)CN1)C(=O)NCC(=O)O [YDE-043] (H-[Hyp]GQLG-OH; N-terminus and C-terminus assumed),more effectively lowered cytokine and chemokine production; also recorded: potently and significantly reduced pro-inflammatory cytokine/chemokine production,–
